Test system: TPM3-NTRK1-wt IC50 / primary target (e.g. CD74-ROS1-wt) IC50, Ba/F3 cells
Experiment: Cell assay TRKA selectivity (TRKA potency divided by primary target potency)
Assay type: cell-based
Conditions: for TPM3-NTRK1-wt/CD74-ROS1-G2032R: TRKA selectivity ratio: TPM3-NTRK1-wt IC50 / CD74-ROS1-G2032R IC50, Ba/F3 cells; for TPM3-NTRK1-wt/CD74-ROS1-wt: TRKA selectivity ratio: TPM3-NTRK1-wt IC50 / CD74-ROS1-wt IC50, Ba/F3 cells; for TPM3-NTRK1-wt/EML4-ALK-L1196M-G1202R: TRKA selectivity ratio: TPM3-NTRK1-wt IC50 / EML4-ALK-L1196M-G1202R IC50, Ba/F3 cells; for TPM3-NTRK1-wt/EML4-ALK-wt: TRKA selectivity ratio: TPM3-NTRK1-wt IC50 / EML4-ALK-wt IC50, Ba/F3 cells
Summary of the method: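 IL-3-independent Ba/F3 lines stably expressing TPM3-TRKA or the primary fusion (e.g. CD74-ROS1 wt) were exposed to 3-fold compound dilutions for 72 h. Viability was read by CellTiter-Glo luminescence, with IC50 from four-parameter logistic fit. Selectivity is TPM3-NTRK1 IC50 divided by primary-target IC50, binned A (>30-fold) to D (<1).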

Compound | TPM3-NTRK1-wt/CD74-ROS1-G2032R | TPM3-NTRK1-wt/CD74-ROS1-wt | TPM3-NTRK1-wt/EML4-ALK-L1196M-G1202R | TPM3-NTRK1-wt/EML4-ALK-wt
CCn1nc2c(c1C#N)-c1cnc(N)c(c1)O[C@H](C)c1cc(F)ccc1-n1nccc1C2 [Example 119, (19R)-22-amino-4-ethyl-16-fluoro-19-methyl-20-oxa-4,5,11,12,23-pentaazapentacyclo[19.3.1.0^2,^6.0^8,^12.0^13,^18]pentacosa-1(24),2,5,8,10,13,15,17,21(25),22-decaene-3-carbonitrile] | D (bin D for low selectivity, ratio<1) | A (bin A for very high selectivity, ratio>30-fold) | D (bin D for low selectivity, ratio<1) | A (bin A for very high selectivity, ratio>30-fold)
CCc1nn(C)c2c1-c1cnc(N)c(c1)OCc1cc(F)ccc1-n1nc(C)cc1C2 [Example 55, 3-ethyl-16-fluoro-5,10-dimethyl-20-oxa-4,5,11,12,23-pentaazapentacyclo[19.3.1.0^2,^6.0^8,^12.0^13,^18]pentacosa-1(24),2(6),3,8,10,13,15,17,21(25),22-decaen-22-amine] | A (bin A for very high selectivity, ratio>30-fold) | A (bin A for very high selectivity, ratio>30-fold) | C (bin C for moderate selectivity, ratio≥1) | A (bin A for very high selectivity, ratio>30-fold)
C[C@H]1Oc2cc(cnc2N)-c2c(cnn2CC2CC2)Cc2cc(C(F)(F)F)nn2-c2ccc(F)cc21 [Example 91, (19R)-3-(cyclopropylmethyl)-16-fluoro-19-methyl-10-(trifluoromethyl)-20-oxa-3,4,11,12,23-pentaazapentacyclo[19.3.1.0^2,^6.0^8,^12.0^13,^18]pentacosa-1(24),2(6),4,8,10,13,15,17,21(25),22-decaen-22-amine] | A (bin A for very high selectivity, ratio>30-fold) | A (bin A for very high selectivity, ratio>30-fold) | A (bin A for very high selectivity, ratio>30-fold) | A (bin A for very high selectivity, ratio>30-fold)
Cc1nc2c(s1)Cc1c(c(C#N)nn1C)-c1cnc(N)c(c1)O[C@H](C)c1cc(F)ccc1-2 [Example 82, (19R)-22-amino-16-fluoro-5,10,19-trimethyl-20-oxa-9-thia-4,5,11,23-tetraazapentacyclo[19.3.1.0^2,^6.0^8,^12.0^13,^18]pentacosa-1(24),2(6),3,8(12),10,13,15,17,21(25),22-decaene-3-carbonitrile] | A (bin A for very high selectivity, ratio>30-fold) | A (bin A for very high selectivity, ratio>30-fold) | B (bin B for high selectivity, ratio>10-fold) | A (bin A for very high selectivity, ratio>30-fold)
C[C@H]1Oc2cc(cnc2N)-c2c(C#N)cnn2Cc2cccnc2-c2ccc(F)cc21 [Example 14, (20R)-23-amino-17-fluoro-20-methyl-21-oxa-5,6,12,24-tetraazapentacyclo[20.3.1.0^2,^6.0^8,^13.0^14,^19]hexacosa-1(25),2,4,8(13),9,11,14,16,18,22(26),23-undecaene-3-carbonitrile] | B (bin B for high selectivity, ratio>10-fold) | A (bin A for very high selectivity, ratio>30-fold) | C (bin C for moderate selectivity, ratio≥1) | A (bin A for very high selectivity, ratio>30-fold)
Cc1cc2n(n1)-c1ccc(F)cc1[C@@H](C)Oc1cc(cnc1N)-c1c(C#N)nn(C)c1C2 [Example 97, (19R)-22-amino-16-fluoro-5,10,19-trimethyl-20-oxa-4,5,11,12,23-pentaazapentacyclo[19.3.1.0^2,^6.0^8,^12.0^13,^18]pentacosa-1(24),2(6),3,8,10,13,15,17,21(25),22-decaene-3-carbonitrile] | A (bin A for very high selectivity, ratio>30-fold) | A (bin A for very high selectivity, ratio>30-fold) | B (bin B for high selectivity, ratio>10-fold) | A (bin A for very high selectivity, ratio>30-fold)
